Reference: PubChem BioAssay (NCI)
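The concentration for 50% growth inhibition is given as GI50. At the TGI there is no net growth.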

How the values were obtained:
Test in all cases: growth of human tumour cells (NCI), 384-well format
[1] = test system: BT-549 breast
[2] = test system: SNB-75 CNS
[3] = test system: HCT-15 colon
[4] = test system: NCI-H522 lung
[5] = test system: SK-MEL-28 melanoma
[6] = test system: MDA-MB-468 breast
[7] = test system: RXF 393 renal
[8] = test system: COLO 205 colon
[9] = test system: CAKI-1 renal
[10] = test system: RPMI-8226 leukemia
[11] = test system: UACC-257 melanoma
[12] = test system: OVCAR-3 ovarian
[13] = test system: HL-60(TB) leukemia

Compound `CNC(=O)c1cc(Oc2ccc(NC(=O)Nc3ccc(Cl)c(C(F)(F)F)c3)cc2)ccn1` has a GI50 [1] of 2290 nM, a TGI [1] of 4040 nM and a GI50 [2] of 3210 nM. The TGI [2] was 5920 nM, the GI50 [3] was 1920 nM and the TGI [3] was 4030 nM. It also gave a GI50 [4] of 2040 nM, a TGI [4] of 4710 nM and a GI50 [5] of 2150 nM. It also gave a TGI [5] of 4340 nM, a GI50 [6] of 1500 nM and a TGI [6] of 3350 nM. It also gave a GI50 [7] of 2200 nM, a TGI [7] of 4430 nM and a GI50 [8] of 2190 nM. It also gave a TGI [8] of 4660 nM, a GI50 [9] of 2190 nM and a TGI [9] of 4740 nM. For the same compound, the GI50 [10] was 1480 nM, the TGI [10] was 2820 nM and the GI50 [11] was 2320 nM. For the same compound, the TGI [11] was 4620 nM, the GI50 [12] was 2280 nM and the TGI [12] was 4380 nM. It also gave a GI50 [13] of 892 nM and a TGI [13] of 2040 nM.
